From EP0449346B1, “4-Piperidinyl-ergoline derivatives” (PHARMACIA S.p.A., priority 1990, dated 1991)

System: rats with unilateral 6-hydroxy dopamine-induced lesion of the dopaminergic nigrostriatal patway
Assay: Turning behaviour in rats: induction of controlateral turnings after a single treatment
Format: in vivo
Excerpt: More in particular, the ergoline derivatives according to the invention are active as antiparkinson agents, owing to their dopaminergic activity. The dopaminergic activity is indicated e.g. by an induction of controlateral turnings in rats with unilateral 6-hydroxy dopamine-induced lesion of the dopaminergic nigrostriatal patway. [According to the principles of N.Ungerstedt et al., Brain Research 24,485 (1970)].

[1] = single treatment, 0.5 mg/Kg s.c., in 6 hours
[2] = single treatment, 0.5 mg/Kg s.c., turning rats / treated rats

`CC(C)C[C@H]1C(=O)N2CCC[C@H]2[C@]2(O)O[C@](NC(=O)[C@@H]3C=C4c5cccc6[nH]c(Br)c(c56)C[C@H]4N(C)C3)(C(C)C)C(=O)N12` [Bromocriptine, bromocriptine, reference compound] was tested, and the “Number of controlateral turns (X) in 6 hours” value (“Number of controlateral turns” for short) (rat, in vivo, sc, 1 mg/kg) was 1920 and the “Turning rats Treated rats” value (rat, in vivo, sc, 1 mg/kg) was 6/9.

With `CN1C[C@H](CC2CC(=O)NC(=O)C2)C=C2c3cccc4[nH]cc(c34)C[C@H]21` [Example 1, 4-[(6-Methylergolen-Δ9,10-8β-yl)methyl]-piperidin-2,6-dione] the “Number of controlateral turns” value [1] was 1540 and the “Turning rats Treated rats” value [2] was 4/4.

With `CN1C(=O)CC(C[C@@H]2C=C3c4cccc5[nH]cc(c45)C[C@H]3N(C)C2)CC1=O` [Example 5, 1-Methyl-4-[(6-methylergolen-Δ9,10-8β-yl)methyl]-piperidin-2,6-dione] the “Number of controlateral turns” value [1] was 1830 and the “Turning rats Treated rats” value [2] was 5/5.
